Laboratory results published in US7563791B2, “Pyrrolotriazine derivatives useful for treating hyper-proliferative disorders and diseases associated with angiogenesis” (Bayer Pharmaceuticals Corporation, priority 2004, dated 2009).

Tests used:
Type in all cases: cell-based
[1] = system: VEGFR stimulated HUVEC proliferation; test: BRDU growth factor stimulated proliferation of HUVEC (VEGF stimulation); conditions: Homo sapiens, 72 h, 80 ng/ml VEGF, 3 days, BrdU incorporation
Procedure: (§1) BRDU Growth Factor Stimulated Proliferation of HUVEC
(§2) Exponentially growing human umbilical vein endothelial cells (HUVEC; Cat# CC-2519A, Cambrex, Walkersville, Md.) were seeded at two thousand cells/well into Collagen IV-coated 96 well plates (Cat#35-4429, Becton Dickinson, Bedford, Mass.) in assay media containing RPMI-1640 (Cat#11875-093, Gibco, Carlsbad, Calif.), 0.5% charcoal-stripped serum (Cat# SH30068.03, HyClone, Logan, Utah), and 1% N-2 supplement (Cat#17502-048, Gibco, Carlsbad, Calif.). Fours hours after incubating the plates at 37° C. in 5% CO2, the cells were treated with different concentrations of compound (diluted in assay media with a final DMSO concentration=0.1%) and then were immediately stimulated with 80 ng/ml of vascular endothelial growth factor (VEGF, Cat#100-20, PeproTech, Rocky Hill, N.J.) or 1.5 ng/ml of basic fibroblast growth factor (bFGF, Catt#100-18B, PeproTech, Rocky Hill, N.J.). Treated cells were incubated for 3 days at 37° C. in 5% CO2. DNA synthesis was measured via the incorporation of bromodeoxyuridine (BrdU) into newly synthesized DNA using the Amersham Cell Proliferation BioTrack ELISA system (Cat# RPN250, Amersham, Piscataway, N.J.). Diluted BrdU solution (20 μl of stock BrdU diluted 1:20 fold into assay media) was added to each well and incubation proceeded for 6 hours at 37° C. in 5% CO2. The media was removed and the cells were fixed according to the specifications of the Amersham assay kit for 30 minutes at room temperature. After removing the fixative, blocking buffer (supplied by Amersham kit; 200 μl/well) was added and the plates were stored at 4° C. overnight. The blocking buffer was aspirated and peroxidase-labeled anti-BrdU antibody (supplied by Amersham kit; 100 μl/well) was added and incubated for 3 hours at room temperature. The plates were washed three times with wash buffer (supplied by Amersham kit; 300 μl/well/wash). Immediately following the washes, 100 μl of the TMB-substrate was dispensed into each well and the plates were further incubated for 30 minutes at room temperature. The reaction was terminated by the addition of 25 μl of 1M H2SO4. Plates were read immediately at 450 nm using a SpectraMAX 250 spectrophotometer plate reader (Molecular Devices, Sunnyvale, Calif.). The software utilized was SoftMAX pro v.2.4.1.

[2] = system: FGFR stimulated HUVEC proliferation; test: BRDU growth factor stimulated proliferation of HUVEC (bFGF stimulation); conditions: Homo sapiens, 72 h, 1.5 ng/ml bFGF, 3 days, BrdU incorporation
Procedure: as §1, §2

HCT116 cells = test: Tumor cell proliferation (Alamar Blue), HCT116; conditions: Homo sapiens, HCT-116, 72 h
Procedure: (§3) Human tumor cells (e.g., HCT116 or MDA-MB-231 cells), are seeded in a Costar 96-well plate at 3.0×10^3 cells/well and grown in 150 μl of RPMI complete media (Invitrogen Corporation, Grand Island, N.Y.) containing 10% fetal bovine serum (Hyclone, Logan, Utah) at 37° C. for 16 h in an incubator with 5% CO2. To each well, 50 μl of additional growth media containing 40 μM to 18 nM concentrations of compound with 0.4% DMSO is added. Cells are grown for another 72 h at 37° C. with 5% CO2. 20 μl of Alamar Blue (Trek Diagnostic Systems, Inc., Cleveland, Ohio) reagent is added to each well and incubated for 3 h at 37° C. Plates are read in a SpectraMax Gemini (Molecular Devices, Calif.) with 544 nm excitation and 590 nm emission wavelength. IC50 values are determined by linear regression analysis of log drug concentration versus percent inhibition.

MDA-MB-231 cells = test: Tumor cell proliferation (Alamar Blue), MDA-MB-231; conditions: Homo sapiens, MDA-MB-231, 72 h
Procedure: as §3

[3] = system: VEGF stimulated Phospho-ERK in HUVEC; test: Growth factor stimulated p-ERK assay in HUVECs (VEGF stimulation, ERK1/2 Bioplex); conditions: Homo sapiens, compound 2 hrs, then 50 ng/ml VEGF 10 min; for inhibition at 0.1 µM: @ 100 nM
Method in brief: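 HUVECs in serum-free RPMI 1640/0.1% BSA pretreated with compound 2 hrs, then stimulated 10 min with 50 ng/ml VEGF (or bFGF). Lysate phospho-ERK1/2 quantified by bead-based Bio-Plex immunoassay on Luminex.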

SMILES | IC50 (HCT116 cells; bounds given in μM) | IC50 (MDA-MB-231 cells; bounds given in μM) | IC50 (HCT116 cells) | IC50 (MDA-MB-231 cells) | IC50 [1] | IC50 [2] | IC50 ([2]; bound given in μM) | inhibition at 0.1 µM [3] | inhibition at 1 µM ([3]; @ 1 μM) | IC50 ([1]; bound given in μM)
Nc1ncnn2cc(-c3nc(CO)co3)c(-c3ccc(NC(=O)Nc4cc(C(F)(F)F)ccn4)cc3)c12 [Example 234, N-(4-{4-amino-6-[4-(hydroxymethyl)-1,3-oxazol-2-yl]pyrrolo[2,1-f][1,2,4]triazin-5-yl}phenyl)-N′-[4-(trifluoromethyl)pyridin-2-yl]urea] | 1.5 to 5 µM | 1.5 to 5 µM | – | – | 0.01 to 0.1 µM | 0.1 to 0.5 µM | – | – | – | –
CCOCc1cn2ncnc(N)c2c1-c1ccc(NC(=O)Nc2cc(C(F)(F)F)ccn2)cc1 [Example 218, N-{4-[4-amino-6-(ethoxymethyl)pyrrolo[2,1-f][1,2,4]triazin-5-yl]phenyl}-N′-[4-(trifluoromethyl)pyridine-2-yl]urea] | 5 to 10 µM | 5 to 10 µM | – | – | < 0.01 µM | 0.1 to 0.5 µM | – | – | – | –
N#Cc1cn2ncnc(N)c2c1-c1ccc(NC(=O)Nc2cc(F)cc(C(F)(F)F)c2)cc1 [Example 103, N-[4-(4-amino-6-cyanopyrrolo[2,1-f][1,2,4]triazin-5-yl)phenyl]-N′-[3-fluoro-5-(trifluoromethyl)phenyl]urea] | 5 to 10 µM | 5 to 10 µM | – | – | 0.01 to 0.1 µM | < 0.1 µM | – | – | – | –
COCc1cn2ncnc(N)c2c1-c1ccc(NC(=O)Nc2cc(C(F)(F)F)ccn2)c(F)c1 [Example 247, N-{4-[4-amino-6-(methoxymethyl)pyrrolo[2,1-f][1,2,4]triazin-5-yl]-2-fluorophenyl}-N′-[4-(trifluoromethyl)pyridin-2-yl]urea] | 1.5 to 5 µM | 1.5 to 5 µM | – | – | 0.1 to 0.5 µM | 0.1 to 0.5 µM | – | – | – | –
Nc1ncnn2cc(CN3CCOCC3)c(-c3ccc(NC(=O)Nc4cc(C(F)(F)F)ccc4F)cc3)c12 [Example 30, N-{4-[4-amino-6-(morpholin-4-ylmethyl)pyrrolo[2,1-f][1,2,4]triazin-5-yl]phenyl}-N′-[2-fluoro-5-(trifluoromethyl)phenyl]urea] | 1.5 to 5 µM | – | – | – | 0.1 to 0.5 µM | 0.1 to 0.5 µM | – | > 50% | – | –
CC(=O)c1cn2ncnc(N)c2c1-c1ccc(NC(=O)Nc2cc(C(F)(F)F)ccc2F)cc1 [Example 223, N-[4-(6-acetyl-4-aminopyrrolo[2,1-f][1,2,4]triazin-5-yl)phenyl]-N′-[2-fluoro-5-(trifluoromethyl)phenyl]urea] | < 1.5 µM | < 1.5 µM | > 0.5 µM | > 0.5 µM | 0.01 to 0.1 µM | < 0.1 µM | – | – | – | –
N#Cc1cn2ncnc(N)c2c1-c1ccc(NC(=O)Nc2ccc(F)c(C(F)(F)F)c2)cc1 [Example 151, N-[4-(4-amino-6-cyanopyrrolo[2,1-f][1,2,4]triazin-5-yl)phenyl]-N′-[4-fluoro-3-(trifluoromethyl)phenyl]urea] | – | – | – | – | 0.01 to 0.1 µM | < 0.1 µM | – | – | – | –
N#Cc1cn2ncnc(N)c2c1-c1ccc(NC(=O)Nc2cccc(OC(F)(F)F)c2)cc1 [Example 152, N-[4-(4-amino-6-cyanopyrrolo[2,1-f][1,2,4]triazin-5-yl)phenyl]-N′-[3-(trifluoromethoxy)phenyl]urea] | – | – | – | – | 0.1 to 0.5 µM | 0.1 to 0.5 µM | – | – | – | –
COCc1cn2ncnc(N)c2c1-c1ccc(NC(=O)Nc2cc(C(F)(F)F)ccn2)cc1 [Example 101, N-{4-[4-amino-6-(methoxymethyl)pyrrolo[2,1-f][1,2,4]triazin-5-yl]phenyl}-N′-[4-(trifluoromethyl)pyridin-2-yl]urea] | – | – | – | – | < 0.01 µM | < 0.1 µM | – | – | – | –

Second part, led by results:

IC50 (HCT116 cells; bounds given in μM) | IC50 (MDA-MB-231 cells; bounds given in μM) | IC50 (HCT116 cells) | IC50 (MDA-MB-231 cells) | SMILES | IC50 [1] | IC50 [2] | IC50 ([2]; bound given in μM) | inhibition at 0.1 µM [3] | inhibition at 1 µM ([3]; @ 1 μM) | IC50 ([1]; bound given in μM)
1.5 to 5 µM | 1.5 to 5 µM | – | – | CC(=O)c1cn2ncnc(N)c2c1-c1ccc(NC(=O)Nc2cc(C(F)(F)F)ccn2)cc1 [Example 233, N-[4-(6-acetyl-4-aminopyrrolo[2,1-f][1,2,4]triazin-5-yl)phenyl]-N′-[4-(trifluoromethyl)pyridin-2-yl]urea] | 0.01 to 0.1 µM | 0.1 to 0.5 µM | – | – | – | –
1.5 to 5 µM | 1.5 to 5 µM | – | – | Nc1ncnn2cc(CO)c(-c3ccc(NC(=O)Nc4cc(C(F)(F)F)ccn4)c(F)c3)c12 [Example 243, N-{4-[4-amino-6-(hydroxymethyl)pyrrolo[2,1-f][1,2,4]triazin-5-yl]-2-fluorophenyl}-N′-[4-(trifluoromethyl)pyridin-2-yl]urea] | 0.01 to 0.1 µM | 0.1 to 0.5 µM | – | – | – | –
< 1.5 µM | < 1.5 µM | > 0.5 µM | > 0.5 µM | Nc1ncnn2cc(-c3cnco3)c(-c3ccc(NC(=O)Nc4cc(F)cc(C(F)(F)F)c4)cc3)c12 [Example 159, N-{4-[4-amino-6-(1,3-oxazol-5-yl)pyrrolo[2,1-f][1,2,4]triazin-5-yl]phenyl}-N′-[3-fluoro-5-(trifluoromethyl)phenyl]urea] | 0.01 to 0.1 µM | 0.1 to 0.5 µM | – | – | – | –
< 1.5 µM | < 1.5 µM | > 0.5 µM | > 0.5 µM | CC(C)(C)c1cc(NC(=O)Nc2ccc(-c3c(CO)cn4ncnc(N)c34)cc2)n(-c2ccc(F)cc2)n1 [Example 239, N-{4-[4-amino-6-(hydroxymethyl)pyrrolo[2,1-f][1,2,4]triazin-5-yl]phenyl}-N′-[3-tert-butyl-1-(4-fluorophenyl)-1H-pyrazol-5-yl]urea] | 0.01 to 0.1 µM | 0.1 to 0.5 µM | – | – | – | –
1.5 to 5 µM | 1.5 to 5 µM | – | – | N#CCc1cn2ncnc(N)c2c1-c1ccc(NC(=O)Nc2cc(C(F)(F)F)ccc2F)cc1 [Example 240, N-{4-[4-amino-6-(cyanomethyl)pyrrolo[2,1-f][1,2,4]triazin-5-yl]phenyl}-N′-[2-fluoro-5-(trifluoromethyl)phenyl]urea] | 0.1 to 0.5 µM | > 0.5 µM | < 1 µM | – | – | –
– | – | < 0.5 µM | < 0.5 µM | Nc1ncnn2cc(-c3cnco3)c(-c3ccc(NC(=O)Nc4cc(C(F)(F)F)ccc4F)cc3)c12 [Example 155, N-{4-[4-amino-6-(1,3-oxazol-5-yl)pyrrolo[2,1-f][1,2,4]triazin-5-yl]phenyl}-N′-[2-fluoro-5-(trifluoromethyl)phenyl]urea] | 0.01 to 0.1 µM | 0.1 to 0.5 µM | – | – | – | –
1.5 to 5 µM | 1.5 to 5 µM | – | – | N#CCc1cn2ncnc(N)c2c1-c1ccc(NC(=O)Nc2cc(C(F)(F)F)ccn2)cc1 [Example 226, N-{4-[4-amino-6-(cyanomethyl)pyrrolo[2,1-f][1,2,4]triazin-5-yl]phenyl}-N′-[4-(trifluoromethyl)pyridin-2-yl]urea] | < 0.01 µM | 0.1 to 0.5 µM | – | – | – | –
< 1.5 µM | 1.5 to 5 µM | > 0.5 µM | – | Nc1ncnn2cc(-c3cnco3)c(-c3ccc(NC(=O)Nc4ccc(F)c(C(F)(F)F)c4)cc3)c12 [Example 162, N-{4-[4-amino-6-(1,3-oxazol-5-yl)pyrrolo[2,1-f][1,2,4]triazin-5-yl]phenyl}-N′-[4-fluoro-3-(trifluoromethyl)phenyl]urea] | 0.01 to 0.1 µM | 0.1 to 0.5 µM | – | – | – | –
1.5 to 5 µM | 1.5 to 5 µM | – | – | COCc1cn2ncnc(N)c2c1-c1ccc(NC(=O)Nc2cc(C(F)(F)F)ccc2F)cc1 [Example 100, N-{4-[4-amino-6-(methoxymethyl)pyrrolo[2,1-f][1,2,4]triazin-5-yl]phenyl}-N′-[2-fluoro-5-(trifluoromethyl)phenyl]urea] | > 0.5 µM | – | – | < 50% | > 50% | < 2 µM
